The test system of series [1] is NPC1 mutant (null or I1061T) cells. Description: Rescue of lysosomal tubulation by 27-HC in NPC1 mutant cells (FIG. 5). It counts as cell-based. The following applies: 27-HC in a cocktail that bypasses receptor-mediated endocytosis. From the text: (§1) FIG. 5. Impact of NPC1 and StARD9 Mutations on Rescue of Lysosomal Tubulation by 27-Hydroxycholesterol (27-HC). The ability of 27-HC to rescue lysosomal tubulation after depletion of NPC1 (shRNA-NPC1) or StARD9 (shRNA-STARD9) was compared to cells expressing the NPC1 (I1061T)-eGFP mutant (I1061T) or a eGFP-StARD9 construct expressing amino acids 1-4483 (STARD9-ΔSTART). ***—p<0.005; ns (not significant).
(§2) To test this idea, we treated either NPC1 mutant (null or I1061T) or StARD9 mutant (null or truncation mutant) cells with 27-HC in a cocktail that delivers it into the cytoplasm independent of receptor-mediated endocytosis. […] Next, we treated NPC1(−/−) mice with 27-HC by i.p. delivery.

The subject of the next series is NPC mutant mice. Description: Therapeutic administration of 27-HC in two transgenic strains of mice with NPC1 mutations (summary). It counts as in vivo. From the text: Mutations in the NPC1 gene affect two independent lysosomal functions. The first is the generation of lysosomal tubules as a mechanism to deliver intracellular cholesterol to other membrane-bound compartments. Because this function is impaired in NPC disease, we investigated the protein components necessary for tubule projection. We identified 27-HC as a signaling molecule that stimulates lysosomal tubulation and is not provided properly to lysosomal membrane to elicit tubulation in NPC disease. To correct this defect, we provide pure 27-HC in a cocktail that bypasses endocytosis. […] We have also tested this therapy in two different transgenic strains of mice with NPC1 mutations. […] Because we know the molecular target for 27-HC (StARD9), we tested 27-HC treatment in mice where we removed the StARD9 gene. […] This confirms the molecular target for 27-HC treatment and is consistent with our proposed model for the defects in NPC disease. Independent of the role for NPC1 in lysosomal tubulation, NPC1 is the “receptor” for the pro-apoptotic protein STING. STING is a signaling molecule that is activated by cell insults, including defective cholesterol transport. Once STING is activated, it triggers programmed cell death pathways. Counteracting STING activation, STING is silenced by binding to lysosomes, which leads to STING degradation and inactivation of this pathway. This silencing is required to prevent STING activation to proceed long-term. We recently discovered that the “receptor” on lysosomes that drives STING silencing is also NPC1. In cells mutant for NPC1, STING silencing is impaired, thereby leading to programmed cell death. As a result, NPC1 mutations cause cell death in two different ways. They cause loss of lysosomal tubulation, and they cause perpetual activation of STING.
We further propose that NPC1 is required for two functions in cells. The first is cholesterol transport from the lysosome to ER. If this activity is impaired, cells are “starved” of cholesterol in the ER. This has consequences for cholesterol metabolism and activates STING. Second, NPC1 in the lysosome is the receptor for STING that is required for STING silencing. In the absence of NPC1, STING remains active after initial activation (Priming) but also amplifies the responses including apoptosis. The dual roles of NPC1 are consistent with results across the NPC field. First, this explains why our StARD9 (−/−) mice are less severe than NPC1 (−/−) mice. NPC1(−/−) mice cause STING activation and impair STING silencing. […] Second, NPC1 (−/−) mice are more severe than NPC1 (I1061 T/I1061 T) mice because the NPC1 […] mice must reduce STING activation and retain some STING silencing compared to nulls.

In series [2] the test system is StARD9 mutant (null or truncation mutant) cells. Description: Rescue of lysosomal tubulation by 27-HC in StARD9 mutant cells (FIG. 5). It counts as cell-based. The following applies: 27-HC in a cocktail that bypasses receptor-mediated endocytosis.
From the text: as §1, §2

For series [3] the following is noted: in vivo. The method, then:
Studies have tested treatment 1× per week and 3× per week. However, from pharmacokinetic studies, it is known that 27-HC levels are only retained for 1-2 days. We will increase to daily treatment by oral gavage and measure serum levels of 27-HC to confirm maintenance of therapeutic levels. […] We will increase to higher doses by adding higher levels of DMSO to allow treatment with 20 mg/kg and 40 mg/kg.
We anticipate an increased benefit from treatment on a daily basis because the pharmacokinetics inform us about how long 27-HC remains in the blood (-100 ng/ml for 12 hours). For reference, children treated with Miglustat are dosed 3× per day. Higher doses of 27-HC and alternative cocktails are expected to reveal which parameters are more important for success. […] When crossed with NPC1(−/−) mice, they observe a significant decrease in NPC disease symptoms and an extension of lifespan (personal communication). This provides independent validation of the benefits associated with treatment with 27-HC. Finally, we expect improved outcomes for mice treated from conception over waiting until weaning (P21). This is because there is such a long window of brain development and maturation from conception to P21, that any developmental aspect of NPC disease would be well underway before we begin treatment at weaning.

Where [4] appears, read: two transgenic strains with NPC1 mutations.

Entries after “also recorded” stand apart in the source; their conditions may differ.

Here are results for one compound from US20250114377A1, “TWO-PRONGED TREATMENT FOR NIEMANN PICK TYPE C DISEASE” (UNIVERSITY OF NOTRE DAME DU LAC, priority 2022, published 2025).

As for `C[C@@H](CO)CCC[C@@H](C)[C@H]1CC[C@H]2[C@@H]3CC=C4C[C@@H](O)CC[C@]4(C)[C@H]3CC[C@]12C` [27-HC, 27-hydroxycholesterol], the “Rescue of lysosomal tubulation in NPC1 mutant cells” value in series [1] is “rescued lysosomal tubulation in NPC1 mutant; also recorded: corrects the lysosomal tubulation defects”. In the series with NPC mutant mice (mouse, in vivo), the “Overall improvement for NPC1 mutant mice” value is reported as “statistically-significant improvement”. In the series with NPC mutant mice (setting [4]), the “Lifespan of mutant mice” value is “extends the lifespan of mutant mice significantly”; the “Lysosomal tubulation in NPC mutant mice” value was “rescues lysosomal tubulation”; the “Onset, severity and progression of NPC disease” value is “delays the onset, severity and progression of NPC disease”. Besides, the “Rescue of lysosomal tubulation in StARD9 mutant cells” value in series [2] was “not StARD9 mutant cells”. Further, in series [3], the “How long 27-HC remains in the blood” value was 12 h and the “Time 27-HC levels are retained” value lay in the range of 1 to 2 days. In series [3] (12 hours), the “27-HC level in the blood” value was -100 ng/mL.
